The results in this text go back to patent US9255085B2, “Carboxamide compounds and methods for using the same” (Rigel Pharmaceuticals, Inc., priority 2008, dated 2016).

Where only a bound is given, the exact number is not on record here.

The assay concerns the target AMPK. Briefly: AMPK activation, enzyme-linked immunosorbent assay. As to conditions: ELISA. In kind it is biochemical. As for the experimental part: Compounds 1-13 were assayed for their ability to activate AMPK using an enzyme-linked immunosorbent assay.
Compounds 14-16 were assayed for their ability to activate AMPK using an enzyme-linked immunosorbent assay.
Compounds 17-18 were assayed for their ability to activate AMPK using an enzyme-linked immunosorbent assay.
Compounds 19-22 were assayed for their ability to activate AMPK using an enzyme-linked immunosorbent assay.
Compounds 23-26 were assayed for their ability to activate AMPK using an enzyme-linked immunosorbent assay.
Compounds 27-33 were assayed for their ability to activate AMPK using an enzyme-linked immunosorbent assay.
Compounds 34-42 were assayed for their ability to activate AMPK using an enzyme-linked immunosorbent assay.

What is called EC50 is the midpoint of the concentration-response curve. Low values mean a more potent agent, high ones a less potent agent. As for `CC(C)(C)OC(=O)N1CCC(NC(=O)c2nc3ccc(OC4CCN(c5ccc(C(F)(F)F)cc5)CC4)cc3o2)CC1` [Compound 1, tert-butyl 4-(6-(1-(4-(trifluoromethyl)phenyl)piperidin-4-yloxy)benzo[d]oxazole-2-carboxamido)piperidine-1-carboxylate], the EC50 (Table 2) is less than 100 nM.

Turning to `O=C(NC1CCN(Cc2cccnc2)CC1)c1ccc2c(c1)CN(Cc1ccc(F)cc1)CC2` [Compound 41, 2-(4-Fluorobenzyl)-N-(1-(pyridine-3-ylmethyl)piperidin-4-yl)-1,2,3,4-tetrahydroisoquinoline-7-carboxamide], the EC50 (Table 8) was 1000 to 10000 nM.

For the molecule `N#Cc1ccc(CN2CCC(NC(=O)c3cn4ccc(OC5CCN(c6ccc(C(F)(F)F)cc6)CC5)cc4n3)CC2)cc1` [Compound 18, N-(1-(4-Cyanobenzyl)piperidin-4-yl)-7-(1-(4-(trifluoromethyl)phenyl)piperidin-4-yloxy)imidazo[1,2-a]pyridine-2-carboxamide], for the setting “Table 4”, the EC50 was less than 100 nM.

Where the note is “Table 6”, `CC(C)(C)OC(=O)N1CCC(Oc2ncc(C(=O)NC3CCN(Cc4ccc(C#N)cc4)CC3)s2)CC1` [Compound 26, tert-Butyl 4-(5-(1-(4-cyanobenzyl)piperidin-4-ylcarbamoyl)thiazol-2-yloxy)piperidine-1-carboxylate] showed an EC50 of 1000 to 10000 nM.

In turn, `N#Cc1ccc(CN2CCC(NC(=O)c3nc4ccc(OC5CCN(c6ccc(C(F)(F)F)cc6)CC5)cc4o3)CC2)cc1` [Compound 2, N-(1-(4-Cyanobenzyl)piperidin-4-yl)-6-(1-(4-(trifluoromethyl)phenyl)piperidin-4-yloxy)benzo[d]oxazole-2-carboxamide] gave an EC50 (Table 2) of less than 100 nM.

Under “Table 8”, `N#Cc1ccc(CN2CCC(NC(=O)c3ccc4c(c3)CN(Cc3ccc(F)cc3)CC4)CC2)cc1` [Compound 40, N-(1-(4-cyanobenzyl)piperidin-4-yl)-2-(4-fluorobenzyl)-1,2,3,4-tetrahydroisoquinoline-7-carboxamide] came in with an EC50 of less than 100 nM.

Turning to `N#Cc1ccc(CN2CCC(NC(=O)c3cnc(OC4CCN(c5ccc(C(F)(F)F)cc5)CC4)cn3)CC2)cc1` [Compound 22, N-(1-(4-Cyanobenzyl)piperidin-4-yl)-5-(1-(4-(trifluoromethyl)phenyl)piperidin-4-yloxy)pyrazine-2-carboxamide], the EC50 (Table 5) was less than 100 nM.

`NC(=O)c1ccc(CN2CC3CC2CN3C(=O)c2nc3ccc(OC4CCN(c5ccc(C(F)(F)F)cc5)CC4)cc3o2)cc1` (centres unmarked) [Compound 9, 4-((5-(6-(1-(4-(Trifluoromethyl)phenyl)piperidin-4-yloxy)benzo[d]oxazole-2-carbonyl)-2,5-diazabicyclo[2.2.1]heptan-2-yl)methyl)benzamide] registered an EC50 (Table 2) of 100 to 1000 nM.
